Assay results taken from patent US8865672B2, “Prevention of tissue ischemia and related methods” (The United States of America, as represented by the …, priority 2006, dated 2014).

Experiments:
HAVSMC = test: 3D collagen matrix contraction assay, human aortic VSMC; assay type: cell-based; details: for TSP1 block of NO relaxation of FCS-induced gel contraction: human aortic VSMC pretreated with 10 μM morpholino
Procedure: Type I collagen gel (3 mg/ml) with 10×M199 (Gibco, Grand Island, N.Y.) at a 10:1 ratio of collagen to medium was prepared, pH balanced with NaOH and seeded with either HAVSMC or VSMC harvested from aortic segments from C57B16 WT or TSP1 null mice (50,000 cells in 75 μl of gel/well) and aliquoted to 96-well plates (Nunc, Denmark). Plates were incubated for 12 h 37° C. and 5% CO2 allowing for gelation and cell spreading, gently released from the well walls and incubated in serum and additive deficient growth medium with 0.1% BSA in the presence of the indicated treatment agents for 10 h. Contraction was determined by measuring the diameter in perpendicular planes (x, y) of each disk, an average obtained and surface area calculated as (d/2)^2π. Experiments were performed in triplicate. Results represent the mean±SD of at least three separate experiments.
(§1) Human aortic VSMC were plated onto 12-well culture plates (Nunc) at a density of 5×10^4 cells/well in SM-GM+2% FCS and cultured until approximately 90% confluent. A translation-blocking antisense morpholino oligonucleotide complementary to human and murine CD47 ([…]; SEQ ID NO: 21) and a five-base mismatch control (CGTgACAGcCAcGACCgACTGCgCA; SEQ ID NO: 22) were obtained from GeneTools (Philomath, Oreg.). Cultured cells were treated as per the manufacturer's recommendation with morpholinos (10 μM) and utilized within 48 hours of treatment.

[1] = system: full thickness skin grafts in mice; test: Full thickness skin graft (FTSG) model; assay type: in vivo, mouse; details: for FTSG survival: wild type FTSG and wound beds infiltrated at grafting
Procedure: Wild type, TSP1 null, CD47 null and CD36 null mice were matched for sex and age. Anesthesia was induced by and maintained with inhalation isoflurane. Body temperature was maintained at 37° C. with a heating pad during the procedure. The dorsal surface was clipped of hair and depilated with Nair®. The skin was then cleansed with surgical soap and alcohol and the animals draped. Using sterile technique, a 1×1 cm FTSG incorporating the panniculus carnosus, subcutaneous tissues and skin were raised. Graft dimensions were marked on the animal skin surface with the aid of a template to insure consistency in dimension. Grafts were in the midline of the animal and secured with four interrupted 5-0 nylon sutures. Sutures were so placed as to include the fascia of the dorsal musculature to provide increased immobilization of grafts to the underlying wound bed Animals were awakened and returned to individual cages and allowed ad libitum access to food and water. Trauma to FTSG was not encountered during the post-operative interval since grafts were located in the dorsal midline over the mid thoracic area and each animal was housed individually following surgery. On postoperative day three or seven, the animals were again anesthetized with inhalation isoflurane and skin graft survival evaluated.
The groups of animals utilized and the treatments received as indicated either at the time of skin grafting and/or during the post-operative interval are summarized in FIG. 21. Animals treated with ISDN (1 mg/ml) or L-NAME (0.5 mg/ml) had ad libitum access to drinking water containing the given concentrations of agents during the post-operative interval. Animals treated with a CD47 monoclonal antibody (Ab clone 301) or an isotype matched control antibody (Ig2α) underwent injection of 40 μg delivered as 10 μl of a 4 mg/ml stock in 100 μl of PBS with equal volumes injected between the wound bed and graft prior to suturing the graft in place. Animals treated with a CD47 morpholino oligonucleotide underwent injection of the FTSG and wound bed with 10 μmol/L in 250 μl of PBS with 125 μl volumes injected in the graft and wound bed, respectively prior to suturing the graft in place.
The necrotic areas of the FTSG were determined by color, refill, eschar, and the pin-prick test. The outlines of viable and nonviable areas were traced using transparent film, and the area of necrosis cut from the template and the area of skin graft necrosis versus total skin graft area determined by comparison of the original template weight to the weight of the cut template utilizing the method described by Ueda (Ueda et al., J Surg Res 80(2):200-204, 1998). Skin graft survival area was presented as the ration of graft survival on post-operative day three or seven divided by the original graft area multiplied by 100%. Additionally, digital images were then acquired using an Olympus C5500 digital camera at a fixed distance (20 cm perpendicular to the animal) under standard room lighting with autoflash and macro settings engaged and uploaded for image analysis of tissue survival with a standard software program (Image-Pro Plus, Media Cybernetics, Inc., Silver Spring, Md.). […]
Skin graft wound beds were assessed at indicated time points (72 hours or 7 days post-operatively) for visible alterations in vascularity under 5× magnification. […] Visible vessels without ramifications and branches were counted once. […]

human aortic VSMC = test: Intracellular cGMP in human aortic VSMC after morpholino; assay type: cell-based; details: for TSP1 inhibition of NO-driven cGMP accumulation: human aortic VSMC pre-treated with morpholino
Procedure: as §1
cGMP was determined in human aortic VSMC via immunoassay as described (Isenberg et al., Blood 2006; Example 2). In some situations cells were pretreated with a CD47 or control morpholino prior to assay.

[2] = system: white hairless Yucatan miniature pig VSMC; test: Intracellular cGMP in porcine VSMC; assay type: cell-based
Procedure: White hairless Yucatan miniature pig VSMC were plated onto culture plates (Nunc, Roskilde, Denmark) at a the indicated cell density in smooth muscle cell growth medium+2% FCS and cultured until approximately 90% confluent. Cultured cells were treated according to the recommendation of the manufacturer with morpholinos (10 μM) and delivery agent (Endoporter® 6 μl/ml) and used within 48 hours of treatment.
White hairless Yucatan miniature pig VSMC (10^4 cells/well) grown overnight in 12-well culture in SM-GM containing 2% FCS and then weaned off serum over 48 h before treatment with NO donors and other agents in serum/additive free medium+0.1% BSA. Intracellular cGMP levels were determined using an enzyme immunoassay (Amersham, GE Health Care, UK).

Substance | TSP1 block of NO relaxation of FCS-induced gel contraction (HAVSMC) | H & E histology of treated wild type FTSG ([1]; mouse, in vivo) | FTSG survival [1] | wound bed vascular index ([1]; wild type wound beds) | TSP1 inhibition of NO-driven cGMP accumulation (human aortic VSMC) | ability of TSP1 to suppress NO-stimulated cGMP after pretreatment ([2]; porcine VSMC, TSP1 2.2 nM) | basal cGMP levels ([2]; resting porcine VSMC) | inhibitory activity of NO on gel contraction (HAVSMC; HAVSMC, DETA/NO 10 μM, TSP1 2.2 nM) | NO-driven cGMP flux (human aortic VSMC; untreated VSMC) | NO-stimulated increase in cGMP ([2]; control and mismatch treated porcine VSMC, TSP1 2.2 nM)
CGTCACAGGCAGGACCCACTGCCCA (all phosphorodiamidate morpholino (PMO)) [CD47 morpholino] | TSP1 was not able to block this relaxation | essentially normal tissue architecture without evidence of necrosis | 79±5% | substantial increases in visible vasculature | essentially blind to the inhibitory effects of TSP1 | resistant to suppression by TSP1 | elevated | – | – | –
CGTgACAGcCAcGACCgACTGCgCA (antisense CGTGACAGCCACGACCGACTGCGCA; all phosphorodiamidate morpholino (PMO)) [control morpholino, reference compound] | remained sensitive to TSP1 inhibition | – | significant graft necrosis and loss | – | retained sensitivity to inhibition | – | – | – | – | –
TSP1: thrombospondin-1 prepared from human platelets | – | – | – | – | – | – | – | completely abrogated | complete inhibition of an NO-driven cGMP flux | blocked the increase in cGMP
